Experiment [1] deals with FGF2-induced angiogenesis in chick chorioalloantoic membranes. The experiment is described as follows: Neovascularization in the Chick Chorioalloantoic Membrane (CAM), FGF2-stimulated CAM Model. It is filed as in vivo. As to conditions: for Branch Points ± SEM: CAM; for inhibition at 10 µM: Gallus gallus, FGF2 + analog, 10 uM (Table 4), read-out: % inhibition ± SEM Branch point in CAM; for % inhibition ± SEM: CAM branch points (Table 3). The procedure:
In vivo neovascularization was examined by the method previously described by Auerbach et al. (Auerbach et al., J. Dev. Biol., 41:391-394 (1974), which is hereby incorporated by reference in its entirety). Ten-day old embryos were purchased from Spafas, Inc. (Preston, Conn.) and were incubated at 37° C. with 55% relative humidity. In the dark with the help of a candling lamp, a small hole was punctured in the shell concealing the air sac with a hypodermic needle. A second hole was punctured, in the shell on the broadside of the egg directly over an avascular portion of the embryonic membrane, as observed during candling. A false air sac was created beneath the second hole by the application of negative pressure to the first hole, which caused the chorioallantoic membrane (CAM) to separate from the shell. A window, approximately 1.0 cm^2, was cut in the shell over the dropped CAM with the use of a small crafts grinding wheel (Dremel, Division of Emerson Electric Company Racine, Wis.), which allowed direct, access to the underlying CAM. Filter disks of #1 filter paper (Whatman International, United Kingdom) were soaked in 3 mg/mL cortisone acetate (Sigma, St. Louis, Mo.) in a solution of 95% ethanol and water and subsequently air dried under sterile conditions. FGF2 (Life Technologies, Gaithersburg, Md.) was used to grow vessels on the CAMs of 10 day old chick embryos. Sterile filter disks adsorbed with FGF2 dissolved in PBS at 1 μg/mL were placed on growing CAMs. Sterile filter disks adsorbed with FGF2 or sulfur- or selenium-containing compounds, and polymeric forms were dissolved in PBS at 1 μg/mL were placed on growing CAM. At 24 h, test compounds or control vehicle was added directly to CAM topically.
CAM tissue directly beneath FGF2-saturated filter disk was resected from embryos treated 48 hours prior with test compound or control. Tissues were washed three times with PBS. Sections were placed in a 35-mm petri dish (Nalge Nunc, Rochester, N.Y.) and examined under a SV6 stereomicroscope (Karl Zeiss, Thornwood, N.Y.) at 50× magnification. Digital images of CAM sections adjacent to filters were collected using a 3-CCD color video camera system (Toshiba America, New York, N.Y.) and analyzed using Image-Pro Plus software (Media Cybernetics, Silver Spring, Md.).
Statistical Analysis: Statistical analysis was performed by 1-way ANOVA comparing experimental with control samples.

The next experiment relates to endothelial cells. The experiment is described as follows: Inhibition of Endothelial Cell Tube Formation (Matrigel, FGF2-stimulated). It is filed as cell-based, Human. As to conditions: for inhibition at 3 µM: Homo sapiens, Endothelial cell, read-out: Man % Inhibition +/− SD. The procedure: Differentiation by endothelial cells was examined using a method developed by Grant et al. (Grant et al., In Vitro Cell Dev. Biol., 27A:327-336 (1991), which is hereby incorporated by reference in its entirety). Matrigel® matrix, phenol-red free (commercially available from Becton Dickinson, Bedford, Mass.) was thawed overnight at 4° C. Using cold pipette tips, 3.0 mg/well of Matrigel® matrix was placed M a cold twenty-four-multi-well plate (Falcon). Matrigel® matrix was allowed to polymerize during incubation at 37° C. for 30 minutes.

[2] abbreviates: FGF2 + analog, all compounds tested at 3 μM, n = 3.

“And” between values parts separate entries of the source, which are not always exact repeats. Identical values can stand only once.

This is an account of results in patent publication US20100080843A1, “Natural and synthetic sulfur and selenium analogs and polymer conjugated forms thereof for the modulation of angiogenesis” (The Research Foundation of the State University Of New York …, priority 2005, published 2010).

Turning to `O=S1(=O)C=CC1` [Example 1], in experiment [1] (FGF2 (1.0 ug/ml) + analog), the “Branch Points ± SEM” value came out at 149 ± 8.9. Further, in experiment [1], the inhibition at 10 µM came to 48.9 ± 7%. Also, in the experiment with endothelial cells (setting [2]), the “Length(mm) ± SEM” value came to 20.64 ± 0.68 mm and the inhibition at 3 µM is 77.9 ± 2.28%.
On to `O=S1(=O)CCCC1` [Example 2], for which the “Branch Points ± SEM” value in experiment [1] (FGF2 (1.0 ug/ml) + analog) is listed as 141.0 ± 10.69. Further, the inhibition at 10 µM in experiment [1] turned out to be 55 ± 8.53%. Besides, in the experiment on endothelial cells (setting [2]), the “Length(mm) ± SEM” value came to 24.03 ± 0.85 mm and the inhibition at 3 µM was 66.5 ± 2.87%.
Consider `CCCCS(=O)(=O)CCCC` [Example 3], for which the “Branch Points ± SEM” value in experiment [1] (FGF2 (1.0 ug/ml) + analog) was 150.88 ± 14.31. For the same compound, the inhibition at 10 µM in experiment [1] amounted to 47.2 ± 11.4%. In the experiment on endothelial cells (setting [2]), the “Length(mm) ± SEM” value worked out at 25.41 ± 1.1 mm and the inhibition at 3 µM is 61.9 ± 3.57%.
With `O=S1(=O)CC=CC1` [Example 4], the “Branch Points ± SEM” value in experiment [1] (FGF2 (1.0 ug/ml) + analog) is 131.57 ± 11.55. For the same compound, the inhibition at 10 µM in experiment [1] worked out at 62.6 ± 9.21%. In addition, in the experiment on endothelial cells (setting [2]), the “Length(mm) ± SEM” value is recorded as 25.25 ± 0.66 mm and the inhibition at 3 µM amounted to 62.5 ± 2.24%.
Consider `CS(=O)(=O)c1ccccc1` [Example 5], for which, in experiment [1] (FGF2 (1.0 ug/ml) + analog), the “Branch Points ± SEM” value was 140 ± 5.2 and the “% inhibition ± SEM” value turned out to be 37 ± 5.9%. For the same compound, the inhibition at 10 µM in experiment [1] came to 37%. In addition, in the experiment on endothelial cells (setting [2]), the “Length(mm) ± SEM” value is on record as 28.81 ± 1.0 mm and the inhibition at 3 µM turned out to be 50.5 ± 3.48%.
Consider `CSCS(C)(=O)=O` [Example 6], for which, in experiment [1] (FGF2 (1.0 ug/ml) + analog), the “Branch Points ± SEM” value was 158.0 ± 7.08. Besides, the inhibition at 10 µM in experiment [1] came out at 25.6 ± 8.1%. Also, in the experiment on endothelial cells (setting [2]), the “Length(mm) ± SEM” value was 22.91 ± 1.70 mm and the inhibition at 3 µM stood at 70.3 ± 5.71%.
For the compound `CS(=O)(=O)C(Cl)(Cl)Cl` [Example 9], the “Branch Points ± SEM” value in experiment [1] (FGF2 (1.0 ug/ml) + analog) was 135.83 ± 8.17. The inhibition at 10 µM in experiment [1] amounted to 51 ± 9.36%. In the experiment on endothelial cells (setting [2]), the “Length(mm) ± SEM” value is 21.95 ± 3.1 mm and the inhibition at 3 µM was 73.5 ± 10.5%.
For `CS(=O)(=O)CS(C)(=O)=O` [Example 12], the “Branch Points ± SEM” value in experiment [1] (FGF2 (1.0 ug/ml) + analog) was determined as 144.83 ± 9.19. Also, the inhibition at 10 µM in experiment [1] is 40.6 ± 10.5%. Further, in the experiment on endothelial cells (setting [2]), the “Length(mm) ± SEM” value is 31.47 ± 1.5 mm and the inhibition at 3 µM came out at 41.5 ± 4.93%.
`O=S1(=O)CC2(C1)CS(=O)(=O)C2` [Example 13]: in experiment [1] (FGF2 (1.0 ug/ml) + analog), the “Branch Points ± SEM” value stood at 164 ± 5 and the “% inhibition ± SEM” value came to 24 ± 4.3%. Further, the inhibition at 10 µM in experiment [1] worked out at 24.7 ± 4.3%. Moreover, in the experiment on endothelial cells (setting [2]), the “Length(mm) ± SEM” value is recorded as 34.61 ± 0.24 mm and the inhibition at 3 µM worked out at 31 ± 0.8%.
Take `O=[Se](=O)(c1ccccc1)c1ccccc1` [Example 14]: the “Branch Points ± SEM” value in experiment [1] (FGF2 (1.0 ug/ml) + analog) is reported as 143.5 ± 4.7. The inhibition at 10 µM in experiment [1] amounted to 41.4 ± 4.5%. For the same compound, in the experiment with endothelial cells (setting [2]), the “Length(mm) ± SEM” value is 31.91 ± 1.8 mm and the inhibition at 3 µM came to 40.1 ± 6.12%.
Turning to `O=S(=O)(c1ccccc1)c1ccccc1` [Example 15], in experiment [1] (FGF2 (1.0 ug/ml) + analog), the “Branch Points ± SEM” value turned out to be 163 ± 15. For the same compound, the inhibition at 10 µM in experiment [1] turned out to be 25 ± 13%. In addition, in the experiment on endothelial cells (setting [2]), the “Length(mm) ± SEM” value is on record as 23.43 ± 2.5 mm and the inhibition at 3 µM came to 65.6 ± 8.9%.
Turning to `C[Se](=O)(=O)c1ccccc1` [Example 16], the inhibition at 10 µM in experiment [1] was found to be 23.8 ± 4.9%. In addition, in the experiment with endothelial cells (setting [2]), the “Length(mm) ± SEM” value is recorded as 28.78 ± 0.88 mm and the inhibition at 3 µM was 46.5 ± 3.2%.
For `CC[Se](=O)(=O)CC` [Example 17], in experiment [1] (FGF2 (1.0 ug/ml) + analog), the “Branch Points ± SEM” value is reported as 146 ± 8.5 and the “% inhibition ± SEM” value worked out at 40 ± 7%. Further, the inhibition at 10 µM in experiment [1] turned out to be 39.9 ± 7.3%. In the experiment with endothelial cells (setting [2]), the “Length(mm) ± SEM” value is given as 30.98 ± 2.43 mm and the inhibition at 3 µM came to 38.6 ± 8.7%.
For `C[Se](=O)c1ccccc1` (stereo not drawn) [Example 18], in experiment [1] (FGF2 (1.0 ug/ml) + analog), the “Branch Points ± SEM” value stood at 165 ± 5.7 and the “% inhibition ± SEM” value was determined as 23.8 ± 4.9%. In addition, the inhibition at 10 µM in experiment [1] is 39%. Besides, in the experiment with endothelial cells (setting [2]), the “Length(mm) ± SEM” value amounted to 28.22 ± 0.92 mm and the inhibition at 3 µM was 48.5 ± 3.3%.
In the case of `CCS(=O)(=O)CC` [Example 19], in experiment [1] (FGF2 (1.0 ug/ml) + analog), the “Branch Points ± SEM” value is on record as 131 ± 17. In experiment [1], the inhibition at 10 µM was determined as 53 ± 15%. Moreover, in the experiment on endothelial cells (setting [2]), the “Length(mm) ± SEM” value is on record as 28.46 ± 25.7 mm and the inhibition at 3 µM is 47.6 ± 9.2%.
In the case of `O=C(O)C[Se](=O)(=O)CC(=O)O` [Example 20], the “Branch Points ± SEM” value in experiment [1] (FGF2 (1.0 ug/ml) + analog) stood at 148.67 ± 11.02. Further, the inhibition at 10 µM in experiment [1] was 36.3 ± 12.6%. Also, in the experiment with endothelial cells (setting [2]), the “Length(mm) ± SEM” value is reported as 25.11 ± 3.1 mm and the inhibition at 3 µM was 62.9 ± 10.5%.
Regarding “FGF2: growth factor used to grow vessels on the CAMs; pro-angiogenic stimulus [reference compound]”, the “Branch Points ± SEM” value in experiment [1] (FGF2 alone, 1.0 ug/ml) was 180.33 ± 8.58 and 193 ± 11 and 173 ± 7.5. Moreover, the “Length(mm) ± SEM” value in the experiment with endothelial cells (FGF2 alone (stimulated control)) turned out to be 43.82 ± 3.2 mm.
